A short description of one series: Caco2 Permeability Assay. It is filed as in vitro ADME. The note with it: human. The procedure:
Preparation of Caco-2 Cells: 50 μL and 25 mL of cell culture medium are added to each well of a Transwell® insert and reservoir, respectively. Then, the HTS Transwell® plates are incubated at 37° C., 5% CO2 for 1 hour before cell seeding. Caco-2 cell cells are diluted to 6.86×10^5 cells/mL with culture medium, and 50 μL of cell suspension are dispensed into the filter well of the 96-well HTS Transwell® plate. Cells are cultivated for 14-18 days in a cell culture incubator at 37° C., 5% CO2, 95% relative humidity. Cell culture medium is replaced every other day, beginning no later than 24 hours after initial plating.
Preparation of Stock Solutions: 10 mM stock solutions of test compounds are prepared in DMSO. The stock solutions of positive controls are prepared in DMSO at the concentration of 10 mM. Digoxin and propranolol are used as control compounds in this assay.
Assessment of Cell Monolayer Integrity: Medium is removed from the reservoir and each Transwell® insert and is replaced with prewarmed fresh culture medium. Transepithelial electrical resistance (TEER) across the monolayer is measured using Millicell Epithelial Volt-Ohm measuring system (Millipore, USA). The Plate is returned to the incubator once the measurement is done. The TEER value is calculated according to the following equation: TEER measurement (ohms)×Area of membrane (cm^2)=TEER value (ohm⋅cm^2). A TEER value greater than 230 ohm⋅cm^2 indicates a well-qualified Caco-2 monolayer.
Assay Procedure: The Caco-2 plate is removed from the incubator and washed twice with pre-warmed HBSS (10 mM HEPES, pH 7.4), and then incubated at 37° C. for 30 minutes. The stock solutions of control compounds are diluted in DMSO to get 1 mM solutions and then diluted with HBSS (10 mM HEPES, pH 7.4) to get 5 μM working solutions. The stock solutions of the test compounds are diluted in DMSO to get 1 mM solutions and then diluted with HBSS (10 mM HEPES and 4% BSA, pH 7.4) to get 5 μM working solutions. The final concentration of DMSO in the incubation system is 0.5%. To determine the rate of drug transport in the apical to basolateral direction. 75 μL of 5 μM working solutions of test compounds are added to the Transwell® insert (apical compartment) and the wells in the receiver plate (basolateral compartment) are filled with 235 μL of HBSS (10 mM HEPES and 4% BSA, pH 7.4). To determine the rate of drug transport in the basolateral to apical direction, 235 μL of 5 μM working solutions of test compounds are added to the receiver plate wells (basolateral compartment) and then the Transwell® inserts (apical compartment) are filled with 75 μL of HBSS (10 mM HEPES and 4% BSA, pH 7.4). Time 0 samples are prepared by transferring 50 μL of 5 μM working solution to wells of the 96-deepwell plate, followed by the addition of 200 μL cold methanol containing appropriate internal standards (IS). The plates are incubated at 37° C. for 2 hours. At the end of the incubation, 50 μL samples from donor sides (apical compartment for Ap→*Bl flux, and basolateral compartment for Bl→Ap) and receiver sides (basolateral compartment for Ap→Bl flux, and apical compartment for Bl→Ap) are transferred to wells of a new 96-well plate, followed by the addition of 4 volume of cold acetonitrile or methanol containing appropriate internal standards (IS). Samples are vortexed for 5 minutes and then centrifuged at 3,220 g for 40 minutes. An aliquot of 100 μL of the supernatant is mixed with an appropriate volume of ultra-pure water before LC-MS/MS analysis. To determine the Lucifer Yellow leakage after 2 hour transport period, stock solution of Lucifer yellow is prepared in ultra-pure water and diluted with HBSS (10 mM HEPES, pH 7.4) to reach the final concentration of 100 μM. 100 μL of the Lucifer yellow solution is added to each Transwell® insert (apical compartment), followed by filling the wells in the receiver plate (basolateral compartment) with 300 μL of HBSS (10 mM HEPES, pH 7.4). […]
On the technique in general: Passage across Caco-2 layers is used to estimate intestinal permeability.

The target of series [1] is T1, JAK2 (JH1 domain-catalytic, Y1007F,Y1008F) kinase (Homo sapiens, UniProt O60674, Y1007F/Y1008F).
T1 construct: made in house; host or cells: transiently transfected HEK293 cells
The experiment in a line: JAK2 Binding Assay (JAK2 JH1 Domain Binding Assay). To be noted: JAK2 JH1 domain binding, qPCR detection; read-out: JAK2 Kd. A general note: In qPCR the cycle at which signal appears reflects the starting amount.

Molecules are shown by their SMILES. Where only a bound is given, the exact number is not on record here.

T1 sequence (O60674 849-1124 Y1007F/Y1008F limits assumed): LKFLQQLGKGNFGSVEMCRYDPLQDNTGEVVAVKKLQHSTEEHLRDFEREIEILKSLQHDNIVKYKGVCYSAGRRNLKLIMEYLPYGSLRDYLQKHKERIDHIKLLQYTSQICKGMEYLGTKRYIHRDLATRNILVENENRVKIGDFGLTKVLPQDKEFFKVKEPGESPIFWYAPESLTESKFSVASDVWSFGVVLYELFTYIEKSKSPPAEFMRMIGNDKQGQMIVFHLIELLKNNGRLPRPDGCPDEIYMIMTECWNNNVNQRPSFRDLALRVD

With `Cn1c(Nc2cc3n(n2)CCCC3(F)F)nc2ncc(Oc3ccnc(NC(=O)N4CCC4)c3)c(C#N)c21` [Example I-30], the efflux ratio at 2 h, 5 μM in “Caco2 Permeability Assay” (pH 7.4, Caco-2, 5 μM, read-out: Efflux Ratio (ER)) was 2 to 5. In addition, the Papp A→B (commonly the apparent permeability from the apical to the basolateral side of a cell layer) at 2 h, 5 μM in “Caco2 Permeability Assay” (pH 7.4, Caco-2, apical to basolateral, 5 μM) came to 3 ×10⁻⁶ cm/s.
Consider `CC(=O)Nc1cc(Oc2cnc3nc(Nc4cc(C(C)(C)C(F)(F)F)on4)n(C)c3c2C#N)ccn1` [Example I-104, N-(4-((7-cyano-1-methyl-2-((5-(1,1,1-trifluoro-2-methylpropan-2-yl)isoxazol-3-yl)amino)-1H-imidazo[4,5-b]pyridin-6-yl)oxy)pyridin-2-yl)acetamide], for which, in series [1], the dissociation constant (Kd) (as a rule, a measure of binding affinity in units of concentration) is above 5 µM.
Still for that read-out and setting: as for `CC(=O)Nc1cc(Oc2cnc3nc(Nc4cc(C(F)(F)F)cn(C)c4=O)n(C)c3c2)ccn1` [Example I-77, N-(4-((1-methyl-2-((1-methyl-2-oxo-5-(trifluoromethyl)-1,2-dihydropyridin-3-yl)amino)-1H-imidazo[4,5-b]pyridin-6-yl)oxy)pyridin-2-yl)acetamide], the figure is below 0.01 µM.

The values are drawn from patent US11970494B2, “6-heteroaryloxy benzimidazoles and azabenzimidazoles as JAK2 inhibitors” (Ajax Therapeutics, Inc., priority 2021, dated 2024).
